This is an account of results in paper PMC13252604, “First Generation Proteolysis Targeting Chimeras (PROTACs) for the Treatment of Progeria” (Advanced Science, 2026).

The assay has as its system HGADFN167 cells. In words: RNA-seq global transcriptomic analysis. The conditions noted are these: HGADFN167, 5 µM, 20 days. It is filed as cell-based, human. The method, then: To establish the broader impact of PROTAC 2 at the molecular level, we performed detailed gene expression and pathway‐centric enrichment analysis. HGADFN167 cells were treated with either vehicle or compound 2 (5 µM) for 20 days before RNA was extracted for RNA‐seq analysis (3 independent biological samples per condition). […] Remarkably, IL6 identification supports the qPCR results previously obtained (Figure 6C). […] In line with these findings, we identified several genes associated with endothelial and blood vessel development (CLDN11 and FOXS1), ECM organization (PTX3, SCUBE3, TINAGL1, and TNFRSF11B), and mesodermal and mesenchymal regulation (MEST, MEDAG, and STC2).
Cells were harvested by trypsin, centrifuged and washed with PBS. Cells pellets were added with 70% (vol/vol) ice-cold ethanol. The mixture was incubated for 15min at 4 °C, centrifuged 2500 rpm, washed with PBS and then re-suspended in 500ul staining buffer (25ug/mL propidium iodide and 100μg/ml DNAse-free RNAse both from Sigma-Aldrich in PBS). The mixture was then allowed to incubate for 30min at 37 °C in the dark and samples were finally analysed by FACScalibur (Becton Dickinson) flow cytometer
11. Transmission electron microscopy.
Cells previously collected in 1.5 mL tube, were washed with PBS and fixed with 2.5% glutaraldehyde and 4% paraformaldehyde in Milloning´s phosphate buffer (41.5 mL 2.26% NaH2PO4·H2O and 8.5 mL 2.52% NaOH both in milliQ water, pH 7.2-7.4) for 4h at 4 °C. […]
Cells were incubated for 1 h in 1% OsO4 at room temperature and then thoroughly washed with milliQ water. […] The samples were analysed and examined in the transmission electron microscope JEM 1010 at 80 […]
Total RNA of HGPS fibroblasts (HGADFN167) and UCM-18142-treated HGPS fibroblasts were extracted for RNA sequencing. The RNA concentration and integrity were assessed using the Tape Station 4150 system (Agilent). […] All raw reads were mapped to the human genome (Grch38) using the software HISAT2. HTSeq was used to calculate Reads Count and transcripts per kilobase per million reads were computed. […]

`CC1(C)Oc2cc3oc(=O)ccc3cc2C[C@@H]1OC(=O)CCCCCNc1cccc2c1C(=O)N(C1CCC(=O)NC1=O)C2=O` (stereo partly drawn) [compound 2] had a downregulated genes (adjusted p<0.01, log2 FC <−1.0) of 205. Under “adjusted p<0.01, log2 FC >1.0”, this compound returned an upregulated genes of 83. Moreover, the “differentially expressed genes, treated vs non‐treated” value (adjusted p<0.01, log2 FC >1.0 or <−1.0) is reported as 288.
